Assay results taken from patent publication US20250011316A1, “PEROXIREDOXIN 3 INHIBITORS AND METHODS OF USE FOR TREATING CANCER” (Wake Forest University Health Sciences, priority 2022, published 2025).
Values after ≈ are worked out from the molar mass of the structure shown.

What was measured:
[1] = test system: human SK—OV-3 ovarian cancer cells; assay: Cellular Activity Assay (cytotoxicity, crystal violet); format: cell-based; conditions: Homo sapiens, SK—OV-3 cells, treated for 48 hr, 0.1-100 μM, crystal violet absorbance at 540 nm
Source text: (§1) To test the activity of compounds, two complimentary assays were used as described below. The Biochemical PRX3 Inhibition Assay tests the ability of each compound to crosslink PRX3 in a simple, in vitro system. In the Cellular Activity Assay, we are testing the ability of compounds to kill SK—OV-3 ovarian cancer cells.
The Cellular Activity Assay measures the EC50 of each compound in human SK—OV-3 ovarian cancer cells TS to be taken into the cell, transported to the mitochondria, and crosslink PRX3.
The cytotoxicity of compounds was measured as described in Nelson et al. (2021) Antioxidants (Basel) 10, 150; Cunniff et al. (2015) PloS one 10, e0127310; and Newick et al. (2012) PloS one 7, e39404. SK—OV-3 is an adherent, epithelial, adenocarcinoma cell line obtained from ATCC (ref #: HTB-77). SK—OV-3 cells are resistant to the commonly used chemotherapeutics, cis-platinum and doxorubicin. For this […], SK—OV-3 cells were plated in a 96-well plate. After 24 h recovery, the cells were treated for 48 hr with multiple concentrations of each compound ranging from 0.1-100 μM.
Cells were washed with PBS to remove dead cells and the remaining live cells were fixed with 3.0% formaldehyde and stained with 0.1% crystal violet. The amount of crystal violet was determined by reading the absorbance at 540 nm (crystal violet dye dissolved in 100% methanol) using a plate reader. The signal for crystal violet dye is proportional to the biomass of remaining live cells. GraphPad Prism9 software was used to calculate the effective inhibitory concentration (EC50) of test compounds. Results for each compound, are normalized to the amount of cells in control wells treated with the equivalent concentration of DMSO (negative control). TS or Compound 4 were included in each set of assays as a positive control.

purified human PRX3 = target: T1, purified human PRX3 (Homo sapiens, UniProt P30048); assay: Biochemical PRX3 Inhibition Assay (non-reducible crosslink by SDS PAGE + single adduct by MALDI-TOF MS); conditions: 100 μM PRX3 with TRX2/thioredoxin reductase/NADPH system and hydrogen peroxide, 1-2 hr at 37° C.
T1 construct: made in house
T1 sequence (P30048 62-256): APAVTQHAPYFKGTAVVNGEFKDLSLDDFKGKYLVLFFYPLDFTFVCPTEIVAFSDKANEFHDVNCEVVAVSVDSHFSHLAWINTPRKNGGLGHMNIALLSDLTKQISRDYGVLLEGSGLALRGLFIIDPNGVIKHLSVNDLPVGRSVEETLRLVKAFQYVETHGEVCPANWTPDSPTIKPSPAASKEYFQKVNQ
Source text: The compounds described herein generally react with two essential cysteine residues in the mitochondrial peroxidase PRX3, leading to the formation of a non-reducible, covalent crosslink of two PRX3 monomers. This crosslink inactivates PRX3. Increased PRX3 crosslink is associated with mitochondrial stress, increased cell death in cell models of malignant mesothelioma and is associated with decreased tumor volume in a mouse model. Cunniff et al. (2015) PloS one 10, e0127310.
as §1
This assay tests the ability of each compound to form a covalent adduct with PRX3. The assay is performed as described in Nelson et al. (2021) Antioxidants (Basel) 10, 150; and Cunniff et al. (2015) PloS one 10, e0127310, and follows the appearance of non-reducible PRX3 crosslinks by SDS PAGE gel electrophoresis and follows the appearance of single PRX3 adducts by mass spectrometry. For this assay, purified human PRX3, hydrogen peroxide (the PRX3 substrate) and all the components required to enable PRX3 to catalytically cycle (thioredoxin-thioredoxin reductase-NAPDH system) are included (details below).
The biochemical PRX3 Inhibition assay contains 100 μM PRX3, 50 μM human TRX2, 0.5 μM mouse thioredoxin reductase, and a NADPH regenerating system composed of 3.2 mM glucose 6-phosphate, 3.2 U/ml glucose 6-phosphate dehydrogenase and 0.4 mM NADPH. Samples are incubated for 1-2 hr at 37° C. with either 0.2 mM TS (positive control), compounds or an equivalent volume of DMSO (negative control). During this incubation, hydrogen peroxide is added to induce turnover of PRX3. Reactions are stopped by the addition of a buffer containing 100 mM dithiothreitol (to break disulfide bonds) and SDS (detergent to denature proteins). NADPH, Glucose 6-Phosphate, and glucose 6-phosphate dehydrogenase were purchased from Sigma Aldrich. PRX3, thioredoxin, and thioredoxin reductase were all purified to >98% purity in the Lowther laboratory according to protocols referenced in Nelson et al. (2021) Antioxidants (Basel) 10, 150; and Cunniff et al. (2015) PloS one 10, e0127310.
To measure the amount of PRX3 crosslink, proteins in the reaction were separated by SDS-polyacrylamide gel electrophoresis and stained for total protein using GelCode Blue (Life Technologies). The amount of unmodified PRX3 and TS-PRX3 crosslink was measured by densiometric analysis of the signal for the PRX3 band running at the MW of a PRX3 crosslink (˜46 kDa) compared to the PRX3 signal at the MW of the un-modified PRX3 (−23 kD).
To measure covalent adduct formation on a single PRX3 monomer, each reaction was exchanged into a mass spectrometry compatible buffer containing 40 mM ammonium citrate, pH 8.3 made in HPLC water. Sample was mixed 1:1 with a matrix solution containing 30 mg/mL sinapinic acid in 70% (vol/vol) acetonitrile, 0.2% formic acid and spotted to onto the sample plate. PRX3 mass was measured by MALDI-TOF MS analysis on a Bruker Daltonics MALDI-TOF MS spectrometer. Spectra were analyzed in FLEXAnalysis Software. The intensity of the reduced PRX3 peak (SH) and intensity of the analog adduct peak was determined and corrected for background signal at the adduct peak in the DMSO control. The fraction of single analog adduct in the monomer peak was determined by dividing the intensity of the adduct peak by the summed intensity of the SH and adduct peaks.

Solubility Assay (HPLC) = format: physicochemical; conditions: HEPES/NaCl buffer, aqueous with cosolvent or surfactant or cyclodextrin, kinetic from dmso stock; 20 mM HEPES, 100 mM NaCl, pH 7.5, 18-24 hours at ambient temperature; read-out: Solubility
Description: A 20 mM stock solution was made for each compound in DMSO. To measure solubility, 0.03-0.05 mL of the stock was added to 0.27 mL 20 mM HEPES, 100 mM NaCl, pH 7.5. The solution was mixed and rotated 18-24 hours at ambient temperature. The next day, solutions were centrifuged for 10 min at 20,000×g at […] to remove insoluble, solid material. Next, 100 μL of the supernatant containing the soluble compound was added to 900 μL DMSO and High Performance Liquid Chromatography was performed as described in Table 1 and either HIPLC gradient 1 (Table 2) or HIPLC gradient 2 (Table 3). For each analog, a 200 μM standard and a 20 μM standard were prepared and run in parallel (standards were dissolved completely in […]). The amount ofLcompound in the experimental sample was calculated by comparing the area under the curve for compound peak to the area for the closest standard and correcting for dilution.

For `C=C(NC(=O)c1csc(-c2ccc(CNC(=O)OCC3CCOCC3)cc2)n1)C(=O)NC(=C)C(=O)OC` [Compound 45, Methyl 2-(2-(2-(4-(((((tetrahydro-2H-pyran-4-yl)methoxy)carbonyl)amino)methyl)phenyl)thiazole-4-carboxamido)acrylamido)acrylate], the EC50 [1] was 1 to 10 µM, the “PRX3 Inhibition (Crosslink + Mono-adduct)” value (“PRX3 Inhibition” below) (purified human PRX3) was “++ (50-90%)” and the solubility (Solubility Assay (HPLC)) was less than 100 µM.

With `C=C(NC(=O)c1csc(N2CCC(NC(=O)C3CCOCC3)CC2)n1)C(=O)NC(=C)C(=O)OC` [Compound 46, Methyl 2-(2-(2-(4-(tetrahydro-2H-pyran-4-carboxamido)piperidin-1-yl)thiazole-4-carboxamido)acrylamido)acrylate] the EC50 [1] was 1 to 10 µM, the “PRX3 Inhibition” value (purified human PRX3) was “+++ (>90%)” and the solubility (Solubility Assay (HPLC)) was 100 to 1000 µM (≈ 49.2 to 492 µg/mL).

In the case of `C=C(NC(=O)c1csc(N2CCN(C(=O)COCCOC)CC2)n1)C(=O)NC(=C)C(=O)OC` [Compound 47, Methyl 2-(2-(2-(4-(2-(2-methoxyethoxy)acetyl)piperazin-1-yl)thiazole-4-carboxamido)acrylamido)acrylate], the EC50 ([1]; SK-OV-3, 48 h) is reported as 25 to 100 µM, the “PRX3 Inhibition” value (purified human PRX3) is reported as “++ (50-90%)” and the solubility (Solubility Assay (HPLC)) is reported as greater than 1000 µM.

For `C=C(NC(=O)c1csc(-c2ccc(NC(=O)CCCCCCl)cc2)n1)C(=O)NC(=C)C(=O)OC` [Compound 48, Methyl 2-(2-(2-(4-(6-chlorohexanamido)phenyl)thiazole-4-carboxamido)acrylamido)acrylate], the EC50 [1] was 1 to 10 µM, the “PRX3 Inhibition” value (purified human PRX3) was “++ (50-90%)” and the solubility (Solubility Assay (HPLC)) was less than 100 µM.

In the case of `C=C(NC(=O)c1csc(-c2ccc(CNC(=O)OCCOCCNC(=O)OC(C)(C)C)cc2)n1)C(=O)NC(=C)C(=O)OC` [Compound 49, Methyl 2-(2-(2-(4-(13,13-dimethyl-3,11-dioxo-4,7,12-trioxa-2,10-diazatetradecyl)phenyl)thiazole-4-carboxamido)acrylamido)acrylate], the EC50 ([1]; SK-OV-3, 48 h) is reported as 1 to 10 µM, the “PRX3 Inhibition” value (purified human PRX3) is reported as “+++ (>90%)” and the solubility (Solubility Assay (HPLC)) is reported as less than 100 µM.

With `C=C(NC(=O)c1csc(-c2ccc(CNC(=O)OCCCCCCN=[N+]=[N-])cc2)n1)C(=O)NC(=C)C(=O)OC` [Compound 50, Methyl 2-(2-(2-(4-(((((6-azidohexyl)oxy)carbonyl)amino)methyl)phenyl)thiazole-4-carboxamido)acrylamido)acrylate] the EC50 [1] was 1 to 10 µM, the “PRX3 Inhibition” value (purified human PRX3) was “+ (5-50%)” and the solubility (Solubility Assay (HPLC)) was less than 100 µM.

In the case of `C=C(NC(=O)c1csc(N2CCC(CNC(=O)C3CCOCC3)CC2)n1)C(=O)NC(=C)C(=O)OC` [Compound 52, methyl 2-(2-(2-(4-((tetrahydro-2H-pyran-4-carboxamido)methyl)piperidin-1-yl)thiazole-4-carboxamido)acrylamido)acrylate], the EC50 [1] is reported as 10 to 25 µM, the “PRX3 Inhibition” value (purified human PRX3) is reported as “+++ (>90%)” and the solubility (Solubility Assay (HPLC)) is reported as less than 100 µM.

With `C=C(NC(=O)c1csc(N2CCC(C(=O)NC3CCOCC3)CC2)n1)C(=O)NC(=C)C(=O)OC` [Compound 53, Methyl 2-(2-(2-(4-((tetrahydro-2H-pyran-4-yl)carbamoyl)piperidin-1-yl)thiazole-4-carboxamido)acrylamido)acrylate] the EC50 [1] was 10 to 25 µM, the “PRX3 Inhibition” value (purified human PRX3) was “+++ (>90%)” and the solubility (Solubility Assay (HPLC)) was less than 100 µM.

For `C=C(NC(=O)c1csc(N2CCC[C@H](NC(=O)C3CCOCC3)C2)n1)C(=O)NC(=C)C(=O)OC` [Compound 54, methyl (S)-2-(2-(2-(3-(tetrahydro-2H-pyran-4-carboxamido)piperidin-1-yl)thiazole-4-carboxamido)acrylamido)acrylate], the EC50 [1] was 25 to 100 µM, the “PRX3 Inhibition” value (purified human PRX3) was “++ (50-90%)” and the solubility (Solubility Assay (HPLC)) was less than 100 µM.

With `C=C(NC(=O)c1csc(N2CCC(NC(=O)COC)CC2)n1)C(=O)NC(=C)C(=O)OC` [Compound 55, Methyl 2-(2-(2-(4-(2-methoxyacetamido)piperidin-1-yl)thiazole-4-carboxamido)acrylamido)acrylate] the EC50 ([1]; SK-OV-3, 48 h) was 10 to 25 µM, the “PRX3 Inhibition” value (purified human PRX3) was “++ (50-90%)” and the solubility (Solubility Assay (HPLC)) was less than 100 µM.

With `C=C(NC(=O)c1csc(N2C[C@@H](C)N(C(=O)OC(C)(C)C)[C@@H](C)C2)n1)C(=O)NC(=C)C(=O)OC` [Compound 56, Tert-butyl (cis)-4-(4-((3-((3-methoxy-3-oxoprop-1-en-2-yl)amino)-3-oxoprop-1-en-2-yl)carbamoyl)thiazol-2-yl)-2,6-dimethylpiperazine-1-carboxylate] the EC50 [1] was 1 to 10 µM, the “PRX3 Inhibition” value (purified human PRX3) was “++ (50-90%)” and the solubility (Solubility Assay (HPLC)) was less than 100 µM.

In the case of `C=C(NC(=O)c1csc(N2CCN(C(=O)OC(C)(C)C)[C@@H](C)C2)n1)C(=O)NC(=C)C(=O)OC` [Compound 57, Tert-butyl (S)-4-(4-((3-((3-methoxy-3-oxoprop-1-en-2-yl)amino)-3-oxoprop-1-en-2-yl)carbamoyl)thiazol-2-yl)-2-methylpiperazine-1-carboxylate], the EC50 [1] is reported as 1 to 10 µM, the “PRX3 Inhibition” value (purified human PRX3) is reported as “+++ (>90%)” and the solubility (Solubility Assay (HPLC)) is reported as less than 100 µM.
